Assay results taken from patent US10440955B2, “Methods comprising a biocidal polyamine” (Curza Global, LLC, priority 2013, dated 2019).
“And” between values parts separate entries of the source, which are not always exact repeats. Identical values can stand only once. Counter-ions that a name gives are not always drawn.

Experiments:
MRSA [1] = assay: MIC against MRSA (as defined by CLSI); format: cell-based; settings: Staphylococcus aureus, FIG. 25
Protocol: To determine the MIC of the polyamine chains alone and the synthesized compounds against MRSA and P. aeruginosa ATCC 27853, a modified protocol from the Clinical and Laboratory Standards Institute (CLSI) guideline M26-A was used. […] All data was collected using cation adjusted MHB for standardization.
As mentioned, MRSA and P. aeruginosa ATCC 27853 were grown on Columbia blood agar plates prior to experimentation. From the blood agar plates, a 0.5 McFarland standard was made of each isolate. This equated to approximately 5×10^7 cells/mL for the MRSA isolate and approximately 3×10^7 cells/mL for the P. aeruginosa ATCC 27853 isolate. Of the 0.5 McFarland stock solution, 50 μL were added to MHB. […] All tests were performed such that a final volume of 5 mL of MHB were obtained. This provided a final bacterial concentration of approximately 5×10^5 cells/mL.
Each sample was incubated in glass test tubes at 37° C. for 24 hours, then plated in duplicate on tryptic soy agar (TSA) using a 10-fold dilution series. TSA plates were further incubated 24 hours at 37° C. The number of colony forming units (CFU) that grew were counted in order to calculate the number of bacteria that were present per mL in the original MHB solution.

MRSA [2] = assay: MIC, microdilution CLSI M26-A (Example 2); format: cell-based; settings: Staphylococcus aureus, 24 h, read-out: MIC (μg/mL/μM)
Protocol: The second test determined the minimum inhibitory concentration (MIC) of the compound against MRSA and P. aeruginosa ATCC 27853. […] This definition was consistent with the Clinical and Laboratory Standards Institute (CLSI). More specifically, the microdilution method as outlined in the M26-A CLSI guideline was used. All tests were performed with cation adjusted Mueller Hinton broth.

MRSA biofilms = assay: EBEC, biofilms on PEEK membranes, eradication of all detectable bacteria (Example 2); format: cell-based, Staphylococcus aureus; settings: ~2×10^11 cells per PEEK membrane, eradicate all detectable bacteria
Protocol: The fourth test that was performed was the effective biofilm eradication concentration (EBEC). To determine the EBEC, biofilms of MRSA and P. aeruginosa ATCC 27853 were grown on the surface of PEEK membranes using a previously established protocol. Briefly, 500 mL of brain heart infusion (BHI) broth were inoculated with 10^5 cells/mL of MRSA or P. aeruginosa. BHI broth was placed into a membrane biofilm reactor and placed on a hot plate set at 34° C. for 24 hours with a stir bar rotating at 130 rpm. Following the initial 24-hour growth period, a 10% BHI broth solution was flowed through the reactor at a rate of 6.944 mL/min for another 24 hours. After 48 hours of growth, each PEEK membrane had biofilm growth on it. In this experiment, there were ˜2×10^11 cells of MRSA per PEEK membrane and ˜2×10^10 cells of P. aeruginosa per PEEK membrane. The EBEC was defined as the concentration of the compound that was required to eradicate all detectable amounts (100%) of bacteria within the biofilms.

human blood = assay: Hemolysis test with diluted human blood (ISO 10993-4); format: cell-based
Description: Procedure: The PBS used in testing was calcium and magnesium free. The method has been validated using human blood from one donor. This is in compliance with ISO 10993-4 which states due to differences in blood activity, human blood should be used where possible. Furthermore, pooling unmatched human blood from multiple donors may cause red blood cell agglutination which in turn could cause hemolysis; this supports the use of a single donor.
The blood was drawn using vacutainers containing 0.1 M sodium citrate at a ratio of 9:1 (3.2% anticoagulant to blood). The blood in this test was used within four hours of blood draw. The collected blood was refrigerated until testing was performed.
A hemoglobin standard was diluted with Drabkin's reagent to give solutions at concentrations of 0.80, 0.60, 0.40, 0.30, 0.20, 0.10, 0.02, and 0.01 mg/ml. These solutions were allowed to stand at room temperature for a minimum of five minutes. The absorbance was read on a spectrophotometer at 540 nanometers (nm). A standard curve was determined with the absorbance values and the standard concentrations of hemoglobin.
Human blood was centrifuged at 700-800×g for 15 minutes. A 1 mL aliquot of the plasma was added into 1 mL of Drabkin's reagent, and placed at room temperature for a minimum of 15 minutes. The absorbance was read on a spectrophotometer at 540 nm. The hemoglobin concentration was determined from the standard curve and then multiplied by a factor of 2 to obtain the total plasma free hemoglobin. The plasma free hemoglobin was less than 2 mg/mL (actual value 0.221 mg/mL). A 20 μL aliquot of blood was added to 5 mL of Drabkin's reagent in duplicate and allowed to stand at room temperature for a minimum of 15 minutes. The absorbance was read on a spectrophotometer at 540 nm then multiplied by 251 to account for the dilution.
Based on the plasma hemoglobin and the blood absorbance against Drabkin's reagent, the blood was diluted out to 10±1 mg/mL with PBS. To verify the blood dilution, a 300 μL aliquot of this blood was added to 4.5 mL of Drabkin's reagent in triplicate and allowed to stand at room temperature for a minimum of 15 minutes. The absorbance was read on a spectrophotometer at 540 nm then multiplied by 16 to account for the dilution.
Glass test tubes were labeled appropriately. Both samples were prepared the same way. The samples were allowed to thaw prior to testing. To each test tube, 7 mL of the test article and 1 mL of the diluted blood were added. The controls consisted of the appropriate amount of control material, 7 mL of PBS and 1 mL of blood. Three tubes were prepared for each test article and control. The tubes were incubated at 37±2° C. for 3 hours±5 minutes. Tubes were gently inverted twice at 30 minute intervals throughout the incubation period. A non-hemolytic negative control, a hemolytic positive control and a PBS blank were included.
After incubation, test articles were centrifuged at 700-800×g for 15 minutes and 1 mL of the supernatant fluid was combined with 1 mL of Drabkin's reagent and allowed to stand at room temperature for a minimum of 15 minutes. Following the centrifugation phase, the supernatant of both test articles visually appeared clear and were particulate free. The PBS blank and the negative control supernatant visually appeared clear and were particulate free. The supernatant of the positive control visually appeared red and were particulate free. The test articles and controls were read at 540 nm in a spectrophotometer.
The hemolytic index (percent hemolysis) was interpreted using the following equation:
[formula] Where: Hemoglobin Released (mg/mL)=(Optical Density×X Coefficient+Constant)×16 Hemoglobin Present (mg/ml)=Diluted Blood 10±1 mg/mL
The corrected hemolytic index was calculated by subtracting the hemolytic index of the PBS blank solution from the hemolytic index of the test article and controls. […]

Question: NCCCNCCCNCc1ccccc1 [CZ-7, benzylnorspermidine] was tested. Which MIC (MRSA [1]) did it give?
Answer: > 1200 µg/mL

Question: Which results are given for CN[C@H](CC(C)C)C(=O)N[C@H]1C(=O)N[C@@H](CC(N)=O)C(=O)N[C@H]2C(=O)N[C@H]3C(=O)N[C@H](C(=O)N[C@H](C(=O)O)c4cc(O)cc(O)c4-c4cc3ccc4O)[C@H](O)c3ccc(c(Cl)c3)Oc3cc2cc(c3O[C@@H]2O[C@H](CO)[C@@H](O)[C@H](O)[C@H]2O[C@H]2C[C@](C)(N)[C@H](O)[C@H](C)O2)Oc2ccc(cc2Cl)[C@H]1O [vancomycin, reference compound]?
Answer: MIC (MRSA [2]): 10 µg/mL and 6.73 µM; EBEC (μg/mL/μM) (MRSA biofilms): > 20,000 μg/mL and > 13,460 μM

Question: Which “Average Hemolytic Index (% Hemolysis)” value (human blood) does the source give for CC(C)CNCCCNCCCNCc1cc(CNCCCNCCCNCC(C)C)cc(-c2ccccc2)c1 [CZ-86, N^1,N^1′-([1,1′-biphenyl]-3,5-diylbis(methylene))bis(N^3-(3-(isobutylamino)propyl)propane-1,3-diamine), hydrochloride salt] here?
Answer: 0.76 % Hemolysis

Question: What about the “Hemolytic Grade” value (human blood) of the same compound?
Answer: non-hemolytic

Question: And the “difference between the hemolytic indexes of test article and negative control” value (human blood)?
Answer: 0.00%

Question: What about the “Average Optical Density” value (human blood; 540 nm) of the same compound?
Answer: 0.003

Question: What about the “Optical Density” value (human blood; 540 nm, three tubes, 37 ± 2° C., 3 hours) of the same compound?
Answer: 0.003

Question: And the “Corrected Hemolytic Index (% Hemolysis)” value (human blood; hemolytic index of the PBS blank subtracted)?
Answer: 0.00 % Hemolysis

Question: What about the “Hemolytic Index” value (human blood; three tubes) of the same compound?
Answer: 0.764
